Values of other authors as cited in patent publication US20110287061A1 (priority 2010, published 2011).

Key:
hair loss = conditions: administered together with Saw Palmetto; individuals with mild to moderate hair loss
gray hair [1] = conditions: 50 patients with gray hair, daily administration for two months
gray hair [2] = conditions: of 20 patients taking varying amounts daily for other conditions

Row | Compound | hair growth (hair loss) | hair colour change (gray hair [1]) | cases of dramatic hair color change and hair re-growth (gray hair [2])
1 | CC[C@H](CC[C@@H](C)[C@H]1CC[C@H]2[C@@H]3CC=C4C[C@@H](O)CC[C@]4(C)[C@H]3CC[C@]12C)C(C)C [beta-sitosterol] | healthy hair growth | – | –
2 | Nc1ccc(C(=O)O)cc1 [PABA, 4-aminobenzoic acid] | – | marked darkening of the hair | 5 cases
